Laboratory results as given in ChEMBL document CHEMBL5724914, “Linking interpersonal differences in gut microbiota composition and drug biotransformation activity” (2024).

Legend:
[1] = human gut metagenome, 24 h, 2 µM
[2] = (§1) The drug is tested on Z-017 corresponding to mouse gut metagenome with ENA study accession number: PRJEB37062 and ENA sample accession number: ERS12561816 for biotransformation under anaerobic condition. The drug concentrations were measured over 9 timepoints collected between 0 and 24 hours of incubation by liquid-chromatography-coupled mass spectrometry (LC–MS); details: 2 µM
[3] = as §1, with “WLS-052” for “Z-017”, “human” for “mouse”, “ERS12561747” for “ERS12561816”; details: 2 µM
[4] = as §1, with “Z-009” for “Z-017”, “pig” for “mouse”, “ERS12561809” for “ERS12561816”; details: 2 µM
[5] = as §1, with “WLS-010” for “Z-017”, “human” for “mouse”, “ERS12561743” for “ERS12561816”; details: 2 µM
[6] = as §1, with “Z-012” for “Z-017”, “to” for “to mouse gut”, “ERS12561812” for “ERS12561816”; details: 2 µM
[7] = as §1, with “Z-003” for “Z-017”, “pig” for “mouse”, “ERS12561803” for “ERS12561816”; details: 2 µM
[8] = as §1, with “Z-024” for “Z-017”, “pig” for “mouse”, “ERS12561823” for “ERS12561816”; details: 2 µM
[9] = human gut metagenome, 24 h, 2 µM; remark: listed apart in the source
[10] = as §1, with “WLS-370” for “Z-017”, “human” for “mouse”, “ERS12561793” for “ERS12561816”; details: 2 µM
[11] = as §1, with “Z-010” for “Z-017”, “to” for “to mouse gut”, “ERS12561810” for “ERS12561816”; details: 2 µM
[12] = as §1, with “Z-019” for “Z-017”, “rat” for “mouse”, “ERS12561818” for “ERS12561816”; details: 2 µM
[13] = as §1, with “Z-027” for “Z-017”, “to” for “to mouse gut”, “ERS12561826” for “ERS12561816”; details: 2 µM
[14] = human gut metagenome, 24 h, 2 µM; remark: listed apart in the source
[15] = human gut metagenome, 24 h, 2 µM; remark: listed apart in the source
[16] = as §1, with “WLS-240” for “Z-017”, “human” for “mouse”, “ERS12561773” for “ERS12561816”; details: 2 µM
[17] = human gut metagenome, 24 h, 2 µM; remark: listed apart in the source
[18] = as §1, with “Z-018” for “Z-017”, “pig” for “mouse”, “ERS12561817” for “ERS12561816”; details: 2 µM
[19] = human gut metagenome, 24 h, 2 µM; remark: listed apart in the source
[20] = as §1, with “WLS-310” for “Z-017”, “human” for “mouse”, “ERS12561785” for “ERS12561816”; details: 2 µM
Note: call rule not given here.

Row | SMILES | Bacterial Biotransformation [1] | Bacterial Biotransformation [2] | Bacterial Biotransformation [3] | Bacterial Biotransformation [4] | Bacterial Biotransformation [5] | Bacterial Biotransformation [6] | Bacterial Biotransformation [7] | Bacterial Biotransformation [8] | Bacterial Biotransformation [9] | Bacterial Biotransformation [10] | Bacterial Biotransformation [11] | Bacterial Biotransformation [12] | Bacterial Biotransformation [13] | Bacterial Biotransformation [14] | Bacterial Biotransformation [15] | Bacterial Biotransformation [16] | Bacterial Biotransformation [17] | Bacterial Biotransformation [18] | Bacterial Biotransformation [19] | Bacterial Biotransformation [20]
1 | COc1ccc2c(c1OC)C(=O)O[C@@H]2[C@H]1c2c(cc3c(c2OC)OCO3)CCN1C [NOSCAPINE] | Compound metabolized | Compound NOT metabolized | Compound NOT metabolized | Compound metabolized | Compound NOT metabolized | Compound NOT metabolized | Compound metabolized | Compound metabolized | Compound metabolized | Compound NOT metabolized | Compound metabolized | Compound NOT metabolized | Compound NOT metabolized | Compound NOT metabolized | Compound metabolized | Compound metabolized | Compound metabolized | Compound metabolized | Compound metabolized | Compound metabolized
2 | CCN(CC)CC#CCOC(=O)C(O)(c1ccccc1)C1CCCCC1.Cl (stereo not given) [OXYBUTYNIN CHLORIDE] | Compound metabolized | Compound NOT metabolized | Compound metabolized | Compound metabolized | Compound metabolized | Compound metabolized | Compound metabolized | Compound metabolized | Compound metabolized | Compound metabolized | Compound metabolized | Compound NOT metabolized | Compound NOT metabolized | Compound metabolized | Compound metabolized | Compound metabolized | Compound metabolized | Compound metabolized | Compound metabolized | Compound metabolized
3 | Fc1ccc([C@@H]2CCNC[C@H]2COc2ccc3c(c2)OCO3)cc1 [PAROXETINE] | Compound metabolized | Compound NOT metabolized | Compound NOT metabolized | Compound metabolized | Compound metabolized | Compound NOT metabolized | Compound metabolized | Compound metabolized | Compound metabolized | Compound metabolized | Compound metabolized | Compound NOT metabolized | Compound NOT metabolized | Compound NOT metabolized | Compound metabolized | Compound metabolized | Compound metabolized | Compound NOT metabolized | Compound metabolized | Compound metabolized
4 | O=c1[nH]c2ccccc2n1C1CCN(CCCC(c2ccc(F)cc2)c2ccc(F)cc2)CC1 [PIMOZIDE] | Compound metabolized | Compound metabolized | Compound metabolized | Compound metabolized | Compound metabolized | Compound metabolized | Compound metabolized | Compound metabolized | Compound metabolized | Compound metabolized | Compound metabolized | Compound NOT metabolized | Compound NOT metabolized | Compound NOT metabolized | Compound metabolized | Compound metabolized | Compound metabolized | Compound metabolized | Compound metabolized | Compound metabolized
5 | COc1cc2nc(N3CCN(C(=O)c4ccco4)CC3)nc(N)c2cc1OC [PRAZOSIN] | Compound NOT metabolized | Compound NOT metabolized | Compound NOT metabolized | Compound NOT metabolized | Compound metabolized | Compound NOT metabolized | Compound NOT metabolized | Compound NOT metabolized | Compound metabolized | Compound metabolized | Compound NOT metabolized | Compound NOT metabolized | Compound NOT metabolized | Compound NOT metabolized | Compound metabolized | Compound metabolized | Compound metabolized | Compound NOT metabolized | Compound metabolized | Compound metabolized
6 | CS(=O)(=O)O.OC(CCN1CCCCC1)(c1ccccc1)c1ccccc1 [PRIDINOL METHANESULFONATE] | Compound NOT metabolized | Compound NOT metabolized | Compound NOT metabolized | Compound NOT metabolized | Compound NOT metabolized | Compound NOT metabolized | Compound metabolized | Compound NOT metabolized | Compound metabolized | Compound NOT metabolized | Compound NOT metabolized | Compound NOT metabolized | Compound NOT metabolized | Compound NOT metabolized | Compound NOT metabolized | Compound metabolized | Compound metabolized | Compound NOT metabolized | Compound NOT metabolized | Compound metabolized
7 | CC(CN1c2ccccc2Sc2ccccc21)N(C)C (stereo not given) [PROMETHAZINE] | Compound metabolized | Compound NOT metabolized | Compound NOT metabolized | Compound NOT metabolized | Compound NOT metabolized | Compound NOT metabolized | Compound NOT metabolized | Compound metabolized | Compound metabolized | Compound NOT metabolized | Compound metabolized | Compound NOT metabolized | Compound NOT metabolized | Compound NOT metabolized | Compound metabolized | Compound metabolized | Compound metabolized | Compound metabolized | Compound NOT metabolized | Compound metabolized
8 | OCCOCCN1CCN(C2=Nc3ccccc3Sc3ccccc32)CC1 [QUETIAPINE] | Compound NOT metabolized | Compound NOT metabolized | Compound NOT metabolized | Compound NOT metabolized | Compound NOT metabolized | Compound NOT metabolized | Compound NOT metabolized | Compound metabolized | Compound metabolized | Compound metabolized | Compound NOT metabolized | Compound NOT metabolized | Compound NOT metabolized | Compound NOT metabolized | Compound metabolized | Compound metabolized | Compound metabolized | Compound metabolized | Compound NOT metabolized | Compound NOT metabolized
